{"source": "paper PMC8074287", "about": "“Analgesic and Anticancer Activity of Benzoxazole Clubbed 2-Pyrrolidinones as Novel Inhibitors of Monoacylglycerol Lipase” (Molecules, 2021)", "assay_in_all_cases": "NCI60 single-dose SRB assay", "type_in_all_cases": "cell-based, human", "key": {"A498": {"tested_on": "A498", "conditions": "A498, Renal Cancer, 10 μM", "description": "(§1) Compounds 19 and 20 were supplied to National Cancer Institute (USA), for sulforhodamine B (SRB) assay and anticancer screening. Single-dose (10 µM) assay results for compounds 19 and 20 were provided as a mean of percent growth (% G) and growth inhibition (% GI) against 60 cell lines of nine types of cancers and are tabulated in Table 4. […] Both the compounds 19 and 20 were also found active on UO-31 renal cancer cell line with % GI of 21.18 and 29.95, respectively.\n(§2) Compounds 19 and 20 were supplied to National Cancer Institute (Bethesda, Maryland, USA), for in vitro sulforhodamine B (SRB) assay, anticancer screening on 60 cell lines of cancers of leukemia, melanoma, and tumors of the kidney, brain, breast, lung, colon, ovary, and prostate, as per their standard protocol. One dose anticancer results (NCI, USA) of compounds 19 and 20 are provided in the Supplementary Materials."}, "ACHN": {"tested_on": "ACHN", "conditions": "Renal Cancer, 10 μM", "description": "as §1, §2"}, "CCRF-CEM": {"tested_on": "CCRF-CEM", "conditions": "Leukemia, 10 μM", "description": "as §1, §2"}, "COLO 205": {"tested_on": "COLO 205", "conditions": "COLO 205, Colon Cancer, 10 μM", "description": "as §1, §2"}, "DU-145": {"tested_on": "DU-145", "conditions": "DU-145, Prostate Cancer, 10 μM", "description": "as §1, §2"}, "HCT-15": {"tested_on": "HCT-15", "conditions": "HCT-15, Colon Cancer, 10 μM", "description": "as §1, §2"}, "HOP-62": {"tested_on": "HOP-62", "conditions": "HOP-62, Non-Small Cell Lung Cancer, 10 μM", "description": "as §1, §2"}, "HOP-92": {"tested_on": "HOP-92", "conditions": "HOP-92, Non-Small Cell Lung Cancer, 10 μM", "description": "as §1, §2"}, "HT29": {"tested_on": "HT29", "conditions": "HT29, Colon Cancer, 10 μM", "description": "as §1, §2"}, "IGROV1": {"tested_on": "IGROV1", "conditions": "IGROV1, Ovarian Cancer, 10 μM", "description": "as §1, §2"}, "K-562": {"tested_on": "K-562", "conditions": "K-562, Leukemia, 10 μM", "description": "as §1, §2"}, "KM12": {"tested_on": "KM12", "conditions": "KM12, Colon Cancer, 10 μM", "description": "as §1, §2"}, "M14": {"tested_on": "M14", "conditions": "M14, Melanoma, 10 μM", "description": "as §1, §2"}, "MALME-3M": {"tested_on": "MALME-3M", "conditions": "Melanoma, 10 μM", "description": "as §1, §2"}, "MCF7": {"tested_on": "MCF7", "conditions": "MCF7, Breast Cancer, 10 μM", "description": "as §1, §2"}, "MDA-MB-468": {"tested_on": "MDA-MB-468", "conditions": "MDA-MB-468, Breast Cancer, 10 μM", "description": "as §1, §2"}, "MOLT-4": {"tested_on": "MOLT-4", "conditions": "MOLT-4, Leukemia, 10 μM", "description": "as §1, §2"}, "NCI-H460": {"tested_on": "NCI-H460", "conditions": "NCI-H460, Non-Small Cell Lung Cancer, 10 μM", "description": "as §1, §2"}, "OVCAR-3": {"tested_on": "OVCAR-3", "conditions": "OVCAR-3, Ovarian Cancer, 10 μM", "description": "as §1, §2"}, "OVCAR-4": {"tested_on": "OVCAR-4", "conditions": "OVCAR-4, Ovarian Cancer, 10 μM", "description": "as §1, §2"}, "OVCAR-5": {"tested_on": "OVCAR-5", "conditions": "OVCAR-5, Ovarian Cancer, 10 μM", "description": "as §1, §2"}, "SF-268": {"tested_on": "SF-268", "conditions": "SF-268, CNS Cancer, 10 μM", "description": "as §1, §2"}, "SF-295": {"tested_on": "SF-295", "conditions": "SF-295, CNS Cancer, 10 μM", "description": "as §1, §2"}, "SK-MEL-5": {"tested_on": "SK-MEL-5", "conditions": "SK-MEL-5, Melanoma, 10 μM", "description": "as §1, §2"}, "SK-OV-3": {"tested_on": "SK-OV-3", "conditions": "SK-OV-3, Ovarian Cancer, 10 μM", "description": "as §1, §2"}, "SN12C": {"tested_on": "SN12C", "conditions": "Renal Cancer, 10 μM", "description": "as §1, §2"}, "SNB-19": {"tested_on": "SNB-19", "conditions": "SNB-19, CNS Cancer, 10 μM", "description": "as §1, §2"}, "SNB-75": {"tested_on": "SNB-75", "conditions": "SNB-75, CNS Cancer, 10 μM", "description": "as §1, §2"}, "SR": {"tested_on": "SR", "conditions": "Leukemia, 10 μM", "description": "as §1, §2"}, "SW-620": {"tested_on": "SW-620", "conditions": "SW-620, Colon Cancer, 10 μM", "description": "as §1, §2"}, "T-47D": {"tested_on": "T-47D", "conditions": "Breast Cancer, 10 μM", "description": "as §1, §2"}, "U251": {"tested_on": "U251", "conditions": "U251, CNS Cancer, 10 μM", "description": "as §1, §2"}}, "data": [{"compound": "O=C1CC(c2nc3ccccc3o2)CN1c1ccc([N+](=O)[O-])cc1", "note": "(stereo not shown) [Compound 19, 4-(Benzo[d]oxazol-2-yl)-1-(4-nitrophenyl)pyrrolidin-2-one]", "values": [{"measurement": "% G", "setting": "A498", "result": 113.46, "unit": "%"}, {"measurement": "% GI", "setting": "A498", "result": "−13.46", "unit": "%"}, {"measurement": "% G", "setting": "ACHN", "result": 91.70, "unit": "%"}, {"measurement": "% GI", "setting": "ACHN", "result": 8.3, "unit": "%"}, {"measurement": "% G", "setting": "CCRF-CEM", "result": 93.58, "unit": "%"}, {"measurement": "% GI", "setting": "CCRF-CEM", "result": 6.42, "unit": "%"}, {"measurement": "% G", "setting": "COLO 205", "result": 103.79, "unit": "%"}, {"measurement": "% GI", "setting": "COLO 205", "result": "−3.79", "unit": "%"}, {"measurement": "% G", "setting": "DU-145", "result": 110.09, "unit": "%"}, {"measurement": "% GI", "setting": "DU-145", "result": "−10.09", "unit": "%"}, {"measurement": "% G", "setting": "HCT-15", "result": 98.10, "unit": "%"}, {"measurement": "% GI", "setting": "HCT-15", "result": 1.9, "unit": "%"}, {"measurement": "% G", "setting": "HOP-62", "result": 85.04, "unit": "%"}, {"measurement": "% GI", "setting": "HOP-62", "result": 14.96, "unit": "%"}, {"measurement": "% G", "setting": "HOP-92", "result": 104.72, "unit": "%"}, {"measurement": "% GI", "setting": "HOP-92", "result": "−4.72", "unit": "%"}, {"measurement": "% G", "setting": "HT29", "result": 99.25, "unit": "%"}, {"measurement": "% GI", "setting": "HT29", "result": 0.75, "unit": "%"}, {"measurement": "% G", "setting": "IGROV1", "result": 104.14, "unit": "%"}, {"measurement": "% GI", "setting": "IGROV1", "result": "−4.14", "unit": "%"}, {"measurement": "% G", "setting": "K-562", "result": 98.41, "unit": "%"}, {"measurement": "% GI", "setting": "K-562", "result": 1.59, "unit": "%"}, {"measurement": "% G", "setting": "KM12", "result": 105.43, "unit": "%"}, {"measurement": "% GI", "setting": "KM12", "result": "−5.43", "unit": "%"}, {"measurement": "% G", "setting": "M14", "result": 101.37, "unit": "%"}, {"measurement": "% GI", "setting": "M14", "result": "−1.37", "unit": "%"}, {"measurement": "% G", "setting": "MALME-3M", "result": 88.53, "unit": "%"}, {"measurement": "% GI", "setting": "MALME-3M", "result": 11.47, "unit": "%"}, {"measurement": "% G", "setting": "MCF7", "result": 99.19, "unit": "%"}, {"measurement": "% GI", "setting": "MCF7", "result": 0.81, "unit": "%"}, {"measurement": "% G", "setting": "MDA-MB-468", "result": 98.03, "unit": "%"}, {"measurement": "% GI", "setting": "MDA-MB-468", "result": 1.97, "unit": "%"}, {"measurement": "% G", "setting": "MOLT-4", "result": 93.64, "unit": "%"}, {"measurement": "% GI", "setting": "MOLT-4", "result": 6.36, "unit": "%"}, {"measurement": "% G", "setting": "NCI-H460", "result": 102.33, "unit": "%"}, {"measurement": "% GI", "setting": "NCI-H460", "result": "−2.33", "unit": "%"}, {"measurement": "% G", "setting": "OVCAR-3", "result": 98.56, "unit": "%"}, {"measurement": "% GI", "setting": "OVCAR-3", "result": 1.44, "unit": "%"}, {"measurement": "% G", "setting": "OVCAR-4", "result": 106.27, "unit": "%"}, {"measurement": "% GI", "setting": "OVCAR-4", "result": "−6.27", "unit": "%"}, {"measurement": "% G", "setting": "OVCAR-5", "result": 98.30, "unit": "%"}, {"measurement": "% GI", "setting": "OVCAR-5", "result": 1.70, "unit": "%"}, {"measurement": "% G", "setting": "SF-268", "result": 91.85, "unit": "%"}, {"measurement": "% GI", "setting": "SF-268", "result": 8.15, "unit": "%"}, {"measurement": "% G", "setting": "SF-295", "result": 98.21, "unit": "%"}, {"measurement": "% GI", "setting": "SF-295", "result": 1.79, "unit": "%"}, {"measurement": "% G", "setting": "SK-MEL-5", "result": 98.72, "unit": "%"}, {"measurement": "% GI", "setting": "SK-MEL-5", "result": 1.28, "unit": "%"}, {"measurement": "% G", "setting": "SK-OV-3", "result": 88.34, "unit": "%"}, {"measurement": "% GI", "setting": "SK-OV-3", "result": 11.66, "unit": "%"}, {"measurement": "% G", "setting": "SN12C", "result": 97.21, "unit": "%"}, {"measurement": "% GI", "setting": "SN12C", "result": 2.79, "unit": "%"}, {"measurement": "% G", "setting": "SNB-19", "result": 99.29, "unit": "%"}, {"measurement": "% GI", "setting": "SNB-19", "result": 0.71, "unit": "%"}, {"measurement": "% G", "setting": "SNB-75", "result": 64.51, "unit": "%"}, {"measurement": "% GI", "setting": "SNB-75", "result": 35.49, "unit": "%"}, {"measurement": "% G", "setting": "SR", "result": 88.92, "unit": "%"}, {"measurement": "% GI", "setting": "SR", "result": 11.08, "unit": "%"}, {"measurement": "% G", "setting": "SW-620", "result": 102.52, "unit": "%"}, {"measurement": "% GI", "setting": "SW-620", "result": "−2.52", "unit": "%"}, {"measurement": "% G", "setting": "T-47D", "result": 80.01, "unit": "%"}, {"measurement": "% GI", "setting": "T-47D", "result": 19.99, "unit": "%"}, {"measurement": "% G", "setting": "U251", "result": 100.97, "unit": "%"}, {"measurement": "% GI", "setting": "U251", "result": "−0.97", "unit": "%"}]}]}
